Test results: ChEMBL document CHEMBL4507263, “Data for DCP probe BAY-474” (2021)

Columns and labels:
[1] = target: Activin receptor type-1B (Homo sapiens) (UniProt P36896); experiment: ALK4 (h) Millipore kinase activity assay; conditions: Compound concentration 1.0 uM
[2] = target: Cyclin-dependent kinase 3 (Homo sapiens) (UniProt Q00526); experiment: CDK3/cyclinE (h) Millipore kinase activity assay; conditions: Compound concentration 1.0 uM
[3] = target: Casein kinase II subunit alpha' (Homo sapiens) (UniProt P19784); experiment: CK2alpha2 (h) Millipore kinase activity assay; conditions: Compound concentration 1.0 uM
[4] = target: Ephrin type-A receptor 1 (Homo sapiens) (UniProt P21709); experiment: EphA1 (h) Millipore kinase activity assay; conditions: Compound concentration 1.0 uM
[5] = target: Fibroblast growth factor receptor 3 (Homo sapiens) (UniProt P22607); experiment: FGFR3 (h) Millipore kinase activity assay; conditions: Compound concentration 1.0 uM
[6] = target: Mitogen-activated protein kinase 9 (Homo sapiens) (UniProt P45984); experiment: JNK2alpha2 (h) Millipore kinase activity assay; conditions: Compound concentration 1.0 uM
[7] = target: Serine/threonine-protein kinase Nek6 (Homo sapiens) (UniProt Q9HC98); experiment: NEK6 (h) Millipore kinase activity assay; conditions: Compound concentration 1.0 uM
[8] = target: Serine/threonine-protein kinase NLK (Homo sapiens) (UniProt Q9UBE8); experiment: NLK (h) Millipore kinase activity assay; conditions: Compound concentration 1.0 uM
[9] = target: Serine/threonine-protein kinase MARK2 (Homo sapiens) (UniProt Q7KZI7); experiment: PAR-1Balpha (h) Millipore kinase activity assay; conditions: Compound concentration 1.0 uM
[10] = target: MAP kinase-activated protein kinase 5 (Homo sapiens) (UniProt Q8IW41); experiment: PRAK (h) Millipore kinase activity assay; conditions: Compound concentration 1.0 uM
[11] = target: Macrophage-stimulating protein receptor (Homo sapiens) (UniProt Q04912); experiment: Ron (h) Millipore kinase activity assay; conditions: Compound concentration 1.0 uM
[12] = target: Tyrosine-protein kinase receptor TYRO3 (Homo sapiens) (UniProt Q06418); experiment: Rse (h) Millipore kinase activity assay; conditions: Compound concentration 1.0 uM
[13] = target: Mitogen-activated protein kinase 14 (Homo sapiens) (UniProt Q16539); experiment: SAPK2a (h) Millipore kinase activity assay; conditions: Compound concentration 1.0 uM
[14] = target: High affinity nerve growth factor receptor (Homo sapiens) (UniProt P04629); experiment: TrkA (h) Millipore kinase activity assay; conditions: Compound concentration 1.0 uM
[15] = target: Melatonin receptor type 1A (Homo sapiens) (UniProt P48039); experiment: Inhibition of Melatonin MT1 at 10 µM in the Eurofins-Panlabs radioligand binding assay (Eurofins_assay_251600); set-up: ligand concentration 0.05 nM; conditions: Compound concentration 10.0 uM
[16] = target: Adenosine receptor A1 (Homo sapiens) (UniProt P30542); conditions: Compound concentration 10.0 uM
[17] = target: Cannabinoid receptor 1 (Homo sapiens) (UniProt P21554); conditions: Compound concentration 10.0 uM
[18] = test system: ALK tyrosine kinase receptor (Homo sapiens), Q9UM73 [C1156Y]; conditions: Compound concentration 1000.0 nM
[19] = target: Bone morphogenetic protein receptor type-2 (Homo sapiens) (UniProt Q13873); conditions: Compound concentration 1000.0 nM
[20] = target: Calcium/calmodulin-dependent protein kinase type II subunit gamma (Homo sapiens) (UniProt Q13555); conditions: Compound concentration 1000.0 nM
[21] = target: Calcium/calmodulin-dependent protein kinase kinase 2 (Homo sapiens) (UniProt Q96RR4); conditions: Compound concentration 1000.0 nM
[22] = target: Cyclin-dependent kinase 11A (Homo sapiens) (UniProt Q9UQ88); conditions: Compound concentration 1000.0 nM
[23] = target: Casein kinase II subunit alpha (Homo sapiens) (UniProt P68400); conditions: Compound concentration 1000.0 nM
[24] = target: Serine/threonine-protein kinase DCLK3 (Homo sapiens) (UniProt Q9C098); conditions: Compound concentration 1000.0 nM
[25] = target: Epithelial discoidin domain-containing receptor 1 (Homo sapiens) (UniProt Q08345); conditions: Compound concentration 1000.0 nM
[26] = target: Myotonin-protein kinase (Homo sapiens) (UniProt Q09013); conditions: Compound concentration 1000.0 nM
[27] = target: Dual specificity tyrosine-phosphorylation-regulated kinase 2 (Homo sapiens) (UniProt Q92630); conditions: Compound concentration 1000.0 nM
[28] = target: Ephrin type-B receptor 1 (Homo sapiens) (UniProt P54762); conditions: Compound concentration 1000.0 nM
[29] = target: Mitogen-activated protein kinase 15 (Homo sapiens) (UniProt Q8TD08); conditions: Compound concentration 1000.0 nM
[30] = test system: Receptor-type tyrosine-protein kinase FLT3 (Homo sapiens), P36888 [N841I]; conditions: Compound concentration 1000.0 nM
[31] = target: Mitogen-activated protein kinase 9 (Homo sapiens) (UniProt P45984); conditions: Compound concentration 1000.0 nM
[32] = target: LIM domain kinase 1 (Homo sapiens) (UniProt P53667); conditions: Compound concentration 1000.0 nM
[33] = target: Leukocyte tyrosine kinase receptor (Homo sapiens) (UniProt P29376); conditions: Compound concentration 1000.0 nM
[34] = target: MAP/microtubule affinity-regulating kinase 4 (Homo sapiens) (UniProt Q96L34); conditions: Compound concentration 1000.0 nM
[35] = target: Serine/threonine-protein kinase 26 (Homo sapiens) (UniProt Q9P289); conditions: Compound concentration 1000.0 nM
[36] = target: Myosin light chain kinase 2, skeletal/cardiac muscle (Homo sapiens) (UniProt Q9H1R3); conditions: Compound concentration 1000.0 nM
[37] = target: Cyclin-dependent kinase 16 (Homo sapiens) (UniProt Q00536); conditions: Compound concentration 1000.0 nM
[38] = target: Cyclin-dependent kinase 15 (Homo sapiens) (UniProt Q96Q40); conditions: Compound concentration 1000.0 nM
[39] = test system: Phosphatidylinositol 4,5-bisphosphate 3-kinase catalytic subunit alpha isoform (Homo sapiens), P42336 [C420R]; conditions: Compound concentration 1000.0 nM
[40] = target: Serine/threonine-protein kinase pim-3 (Homo sapiens) (UniProt Q86V86); conditions: Compound concentration 1000.0 nM
[41] = target: Phosphatidylinositol 5-phosphate 4-kinase type-2 gamma (Homo sapiens) (UniProt Q8TBX8); conditions: Compound concentration 1000.0 nM
[42] = target: Protein kinase C delta type (Homo sapiens) (UniProt Q05655); conditions: Compound concentration 1000.0 nM
[43] = target: Serine/threonine-protein kinase RIO2 (Homo sapiens) (UniProt Q9BVS4); conditions: Compound concentration 1000.0 nM
[44] = target: Uncharacterized serine/threonine-protein kinase SBK3 (Homo sapiens) (UniProt P0C264); conditions: Compound concentration 1000.0 nM
[45] = target: Activated CDC42 kinase 1 (Homo sapiens) (UniProt Q07912); conditions: Compound concentration 1000.0 nM
[46] = target: 5-hydroxytryptamine receptor 1D (Homo sapiens) (UniProt P28221); conditions: Compound concentration 10.0 uM

Mitogen-activated protein kinase 9 (Homo sapiens), sequence (P45984 whole entry, looked up, the tested form may be a part): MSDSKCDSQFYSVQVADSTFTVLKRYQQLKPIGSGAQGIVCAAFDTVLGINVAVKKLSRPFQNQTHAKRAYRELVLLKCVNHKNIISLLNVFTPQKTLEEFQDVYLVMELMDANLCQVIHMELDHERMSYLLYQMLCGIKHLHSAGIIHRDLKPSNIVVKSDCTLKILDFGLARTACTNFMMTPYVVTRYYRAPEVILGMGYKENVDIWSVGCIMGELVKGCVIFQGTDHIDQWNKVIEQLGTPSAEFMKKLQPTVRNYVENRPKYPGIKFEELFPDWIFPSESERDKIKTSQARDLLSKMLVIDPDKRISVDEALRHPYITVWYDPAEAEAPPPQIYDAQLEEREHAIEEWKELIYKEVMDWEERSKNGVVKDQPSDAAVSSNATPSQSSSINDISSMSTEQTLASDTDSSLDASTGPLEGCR
Adenosine receptor A1 (Homo sapiens), sequence (P30542 whole entry): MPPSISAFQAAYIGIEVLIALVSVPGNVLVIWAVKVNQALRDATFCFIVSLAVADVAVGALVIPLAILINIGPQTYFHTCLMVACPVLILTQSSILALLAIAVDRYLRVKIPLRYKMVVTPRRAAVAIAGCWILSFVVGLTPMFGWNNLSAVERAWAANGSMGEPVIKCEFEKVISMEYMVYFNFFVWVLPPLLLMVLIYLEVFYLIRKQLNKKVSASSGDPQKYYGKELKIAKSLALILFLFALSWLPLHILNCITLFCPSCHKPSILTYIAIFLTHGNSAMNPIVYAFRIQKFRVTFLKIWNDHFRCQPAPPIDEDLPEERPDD
Cyclin-dependent kinase 15 (Homo sapiens), sequence (Q96Q40 whole entry, canonical isoform): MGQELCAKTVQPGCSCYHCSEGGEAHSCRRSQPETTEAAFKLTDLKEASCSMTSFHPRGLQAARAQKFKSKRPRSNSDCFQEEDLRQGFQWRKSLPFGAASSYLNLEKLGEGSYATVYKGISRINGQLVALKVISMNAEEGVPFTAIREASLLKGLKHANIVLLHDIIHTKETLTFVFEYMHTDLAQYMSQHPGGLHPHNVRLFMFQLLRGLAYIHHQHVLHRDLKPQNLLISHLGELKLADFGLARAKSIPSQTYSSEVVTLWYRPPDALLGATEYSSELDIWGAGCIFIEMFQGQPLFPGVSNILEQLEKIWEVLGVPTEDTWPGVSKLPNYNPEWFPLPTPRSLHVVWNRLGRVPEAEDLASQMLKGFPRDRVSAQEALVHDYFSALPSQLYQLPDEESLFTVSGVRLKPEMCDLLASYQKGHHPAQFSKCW
Serine/threonine-protein kinase DCLK3 (Homo sapiens), sequence (Q9C098 whole entry, the tested form may be a part): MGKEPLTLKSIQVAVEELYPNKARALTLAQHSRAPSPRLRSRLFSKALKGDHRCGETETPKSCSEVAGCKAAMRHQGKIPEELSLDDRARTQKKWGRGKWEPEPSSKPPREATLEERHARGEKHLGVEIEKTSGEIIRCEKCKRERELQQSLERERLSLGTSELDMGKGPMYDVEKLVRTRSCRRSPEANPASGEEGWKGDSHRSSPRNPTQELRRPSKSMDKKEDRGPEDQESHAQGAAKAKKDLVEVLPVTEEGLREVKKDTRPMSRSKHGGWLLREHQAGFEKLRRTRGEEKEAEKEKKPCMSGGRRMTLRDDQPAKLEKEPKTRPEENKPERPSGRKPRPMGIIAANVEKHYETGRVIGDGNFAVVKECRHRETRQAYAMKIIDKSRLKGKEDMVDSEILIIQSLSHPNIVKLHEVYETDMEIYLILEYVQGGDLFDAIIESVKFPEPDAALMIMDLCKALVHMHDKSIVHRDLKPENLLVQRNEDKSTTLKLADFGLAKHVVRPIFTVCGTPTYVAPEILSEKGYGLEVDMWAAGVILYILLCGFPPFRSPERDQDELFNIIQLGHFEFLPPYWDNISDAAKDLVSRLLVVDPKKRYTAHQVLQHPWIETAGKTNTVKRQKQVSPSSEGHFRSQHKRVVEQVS
Ephrin type-B receptor 1 (Homo sapiens), sequence (P54762 whole entry): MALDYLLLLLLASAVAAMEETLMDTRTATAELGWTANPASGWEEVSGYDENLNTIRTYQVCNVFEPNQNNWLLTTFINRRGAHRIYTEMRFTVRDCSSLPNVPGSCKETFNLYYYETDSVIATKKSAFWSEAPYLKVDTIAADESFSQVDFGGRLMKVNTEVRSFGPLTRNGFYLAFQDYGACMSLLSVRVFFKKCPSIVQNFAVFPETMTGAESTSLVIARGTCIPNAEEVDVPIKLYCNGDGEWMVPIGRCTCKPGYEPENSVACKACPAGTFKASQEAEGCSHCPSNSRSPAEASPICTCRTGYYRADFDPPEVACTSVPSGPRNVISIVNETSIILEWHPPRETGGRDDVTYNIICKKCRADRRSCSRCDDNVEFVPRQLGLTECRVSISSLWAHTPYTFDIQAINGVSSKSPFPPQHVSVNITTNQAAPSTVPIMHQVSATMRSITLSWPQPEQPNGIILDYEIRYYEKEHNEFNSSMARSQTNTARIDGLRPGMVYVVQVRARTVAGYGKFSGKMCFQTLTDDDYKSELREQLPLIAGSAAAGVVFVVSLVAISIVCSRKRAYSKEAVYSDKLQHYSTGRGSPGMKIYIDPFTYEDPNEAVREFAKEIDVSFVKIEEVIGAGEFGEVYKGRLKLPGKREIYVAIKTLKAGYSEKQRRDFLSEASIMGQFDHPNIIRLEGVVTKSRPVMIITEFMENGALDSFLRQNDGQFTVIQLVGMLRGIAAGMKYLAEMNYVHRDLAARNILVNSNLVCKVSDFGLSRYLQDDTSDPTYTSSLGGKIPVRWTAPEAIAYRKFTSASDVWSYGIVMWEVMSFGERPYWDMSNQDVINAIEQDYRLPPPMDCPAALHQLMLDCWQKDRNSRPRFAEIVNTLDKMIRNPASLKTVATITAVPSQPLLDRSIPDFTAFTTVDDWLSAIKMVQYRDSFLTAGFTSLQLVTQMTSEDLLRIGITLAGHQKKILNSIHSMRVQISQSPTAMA
Fibroblast growth factor receptor 3 (Homo sapiens), sequence (P22607 23-806 limits assumed): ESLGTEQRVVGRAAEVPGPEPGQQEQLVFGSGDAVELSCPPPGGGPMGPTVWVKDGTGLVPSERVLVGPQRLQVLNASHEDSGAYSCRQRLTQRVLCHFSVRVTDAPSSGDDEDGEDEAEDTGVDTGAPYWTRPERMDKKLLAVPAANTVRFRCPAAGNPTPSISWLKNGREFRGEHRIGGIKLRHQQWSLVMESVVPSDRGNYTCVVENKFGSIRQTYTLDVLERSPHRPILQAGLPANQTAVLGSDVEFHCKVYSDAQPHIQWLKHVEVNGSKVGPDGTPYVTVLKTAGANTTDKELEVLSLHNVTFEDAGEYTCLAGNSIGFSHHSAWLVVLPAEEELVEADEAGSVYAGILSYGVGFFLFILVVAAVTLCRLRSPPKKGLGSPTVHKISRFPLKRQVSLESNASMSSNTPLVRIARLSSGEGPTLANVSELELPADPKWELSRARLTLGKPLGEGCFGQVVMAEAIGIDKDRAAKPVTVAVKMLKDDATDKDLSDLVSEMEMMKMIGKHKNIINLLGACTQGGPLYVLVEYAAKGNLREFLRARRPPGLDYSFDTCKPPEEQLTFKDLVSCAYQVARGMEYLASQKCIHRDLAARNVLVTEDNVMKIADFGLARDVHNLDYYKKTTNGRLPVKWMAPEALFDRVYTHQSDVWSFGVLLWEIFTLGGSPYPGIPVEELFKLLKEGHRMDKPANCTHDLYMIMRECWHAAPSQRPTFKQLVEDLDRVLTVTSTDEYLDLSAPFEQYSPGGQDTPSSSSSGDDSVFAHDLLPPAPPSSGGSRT
Serine/threonine-protein kinase NLK (Homo sapiens), sequence (Q9UBE8 whole entry): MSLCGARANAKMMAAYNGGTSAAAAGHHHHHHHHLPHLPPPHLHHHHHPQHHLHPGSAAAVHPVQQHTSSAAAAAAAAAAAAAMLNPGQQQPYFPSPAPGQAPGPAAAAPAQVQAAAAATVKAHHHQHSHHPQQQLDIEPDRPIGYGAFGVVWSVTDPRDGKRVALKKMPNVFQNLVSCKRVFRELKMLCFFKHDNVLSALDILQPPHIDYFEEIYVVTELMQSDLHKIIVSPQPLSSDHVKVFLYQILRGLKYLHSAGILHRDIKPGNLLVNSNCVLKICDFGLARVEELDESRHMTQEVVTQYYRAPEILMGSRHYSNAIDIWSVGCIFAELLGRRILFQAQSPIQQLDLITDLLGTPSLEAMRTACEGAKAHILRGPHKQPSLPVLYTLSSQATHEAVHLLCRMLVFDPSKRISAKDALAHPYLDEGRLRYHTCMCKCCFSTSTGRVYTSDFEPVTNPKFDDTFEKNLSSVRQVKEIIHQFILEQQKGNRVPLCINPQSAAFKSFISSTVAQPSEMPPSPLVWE
Serine/threonine-protein kinase 26 (Homo sapiens), sequence (Q9P289 2-416 limits assumed): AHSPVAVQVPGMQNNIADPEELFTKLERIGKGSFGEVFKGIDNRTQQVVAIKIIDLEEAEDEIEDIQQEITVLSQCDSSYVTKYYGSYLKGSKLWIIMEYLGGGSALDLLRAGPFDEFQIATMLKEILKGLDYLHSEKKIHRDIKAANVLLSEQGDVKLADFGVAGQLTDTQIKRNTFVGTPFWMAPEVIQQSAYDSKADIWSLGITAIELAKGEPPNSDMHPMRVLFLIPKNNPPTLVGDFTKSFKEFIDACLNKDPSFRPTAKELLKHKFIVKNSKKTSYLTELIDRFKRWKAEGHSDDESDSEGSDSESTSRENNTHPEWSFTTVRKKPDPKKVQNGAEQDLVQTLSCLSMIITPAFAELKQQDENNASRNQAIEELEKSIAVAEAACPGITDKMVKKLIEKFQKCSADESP

CC1=C(C#N)C(c2ccc3[nH]nc(C)c3c2)C(C#N)=C(C)N1 [BAY-474]
inactive: inhibition [1] 4% | inhibition [2] -4% | inhibition [3] -2% | inhibition [4] 0% | inhibition [5] 10% | inhibition [6] 17% | inhibition [7] -10% | inhibition [8] -4% | inhibition [9] 26% | inhibition [10] 6% | inhibition [11] 8% | inhibition [12] 28% | inhibition [13] 3% | inhibition [14] 27% | inhibition [15] 2% | inhibition [16] -2% | inhibition [17] 17%

CC1=C(C#N)[C@@H](c2ccc3[nH]nc(C)c3c2)C(C#N)=C(c2ccc(Cl)cc2)N1 [BAY-827]
inactive: residual activity [18] 100% | residual activity [19] 100% | residual activity [20] 100% | residual activity [21] 86.5% | residual activity [22] 90% | residual activity [23] 100% | residual activity [24] 71.3% | residual activity [25] 84.5% | residual activity [26] 100% | residual activity [27] 100% | residual activity [28] 100% | residual activity [29] 100% | residual activity [30] 100% | residual activity [31] 89.5% | residual activity [32] 100% | residual activity [33] 100% | residual activity [34] 100% | residual activity [35] 100% | residual activity [36] 91.4% | residual activity [37] 88.9% | residual activity [38] 75.4% | residual activity [39] 100% | residual activity [40] 100% | residual activity [41] 100% | residual activity [42] 86.3% | residual activity [43] 100% | residual activity [44] 100% | residual activity [45] 100% | inhibition [46] 4.2%
